The results in this text go back to ChEMBL document CHEMBL4354783, “The calcium-dependent lipopeptide antibiotics: structure, mechanism, & medicinal chemistry” (2019).

One assay deals with Enterococcus faecium. Description: Antibacterial activity against vancomycin-resistant Enterococcus faecium incubated for 18 hrs by two-fold serial dilutions method. It is filed as functional.
Another assay has as its system Staphylococcus aureus. Description: Antibacterial activity against methicillin-resistant Staphylococcus aureus USA300 incubated for 18 hrs by two-fold serial dilutions method. The settings on record: USA300, 18 h. In kind it is functional.

SMILES strings stand for the structures. Converted amounts (≈) assume the structure as drawn.

In general, MIC refers to the lowest concentration found to suppress growth. Read a low MIC as inhibition by little substance. As for `CCC(C)CC/C=C\C=C\C(=O)N[C@H](C(=O)N[C@@H]1C(=O)N[C@H](C(C)C)C(=O)N[C@@H](CCCCN)C(=O)N[C@@H](C(O)C(=O)O)C(=O)N[C@@H](CC(=O)O)C(=O)NCC(=O)N[C@H](C(C)C(=O)O)C(=O)N[C@@H](C(C)C)C(=O)N2C[C@H](C)C[C@H]2C(=O)NC1C)C(C)C(=O)O` (some centres undefined), the results for the MIC in the assay on Enterococcus faecium and against Staphylococcus aureus were 0.8 to 2 µg/mL (≈ 0.633 to 1.58 µM) and 0.2 to 0.8 µg/mL (≈ 0.158 to 0.633 µM), respectively.

For `CC(C)CC/C=C\C=C\C(=O)N[C@H](C(=O)N[C@@H]1C(=O)N[C@H](C(C)C)C(=O)N[C@@H](CCCCN)C(=O)N[C@@H](C(O)C(=O)O)C(=O)N[C@@H](CC(=O)O)C(=O)NCC(=O)N[C@H](C(C)C(=O)O)C(=O)N[C@@H](C(C)C)C(=O)N2C[C@H](C)C[C@H]2C(=O)NC1C)C(C)C(=O)O` (some centres undefined), the MIC in the assay on Enterococcus faecium lay in the range of 0.8 to 2 µg/mL (≈ 0.64 to 1.6 µM); against Staphylococcus aureus, 0.2 to 0.8 µg/mL (≈ 0.16 to 0.64 µM).
